Test results: ChEMBL document CHEMBL5096154, “A comprehensive review on the biological interest of quinoline and its derivatives” (Bioorg Med Chem, 2021)
pIC50: −log10 of the molar value. ≈ marks a conversion by molar mass, not a printed value.

Legend:
Plasmodium falciparum = assay: Antimalarial activity against chloroquine-resistant Plasmodium falciparum assessed as parasite growth inhibition measured for 24 to 72 hrs; format: functional, organism-based
Leishmania braziliensis = assay: Antileishmanial activity against promastigote form of Leishmania braziliensis assessed as parasite growth inhibition; format: functional
[1] = tested on: Mycobacterium tuberculosis; assay: Antimycobacterial activity against Mycobacterium tuberculosis H37Rv assessed as bacterial growth inhibition by microplate alamar blue assay; format: functional

SMILES	IC90 (Leishmania braziliensis)	MIC [1]	other results
CN1c2ccccc2CCC1CCc1ccc2c(c1)OCO2 (stereo unspecified)	–	–	pIC50 (Plasmodium falciparum): 6.56
C/C=C/c1ccc2ccccc2n1 [CHIMANINE B]	25 µg/mL (≈ 148 µM)	–	–
CCCc1ccc2ccccc2n1	20 µg/mL (≈ 117 µM)	–	–
CC1OC1c1ccc2ccccc2n1 (stereo unspecified)	25 µg/mL (≈ 135 µM)	–	–
COc1ccc(-c2nc3ncccc3c3ccoc23)cc1	–	5.6 µM	–
CC[C@@H](CO)NCCN[C@@H](CC)CO [ETHAMBUTOL]	–	7.6 µM	–
